Experimental data from US12133878B2, “Pharmaceutical compositions having a selected release duration” (Foresee Pharmaceuticals Co., Ltd., priority 2017, dated 2024).
Structures can show the parent of a compound that is named as a salt.

Tests used:
[1] = In vitro release of leuprolide in PBS at pH 7.4 at 37° C. (HPLC); format: physicochemical; settings: for release of leuprolide completed: Example 5, FIG. 3, PLA 16,000 Dalton 60% in NMP, about 12% leuprolide, gamma 25 kGy
Procedure: The product is supplied in 2 separate syringes with the leuprolide acetate in one syringe and the polymer solution in the other. The two are mixed immediately prior to injection. The polymer solution contains a 50% 8515PLGA polymer solution in NMP. The molecular weight of the polymer is about 20k dalton. […] The leuprolide mesylate was prepared from leuprolide acetate by ion exchange lyophilization process and contains a small amount of acetate. The formulation was mixed and stored in a single syringe. Another formulation was made with LAMS using a PLA polymer with a molecular weight of 15k dalton (PLA-1) and a polydispersity index (PDI) of 1.8. This formulation was also mixed and stored in a single syringe. […] The release sample was taken at predefined time points and analyzed by HPLC.
The in vitro release of leuprolide was tested from these two formulations. The in vitro release test was performed in PBS at pH 7.4 at 37° C. and the release of leuprolide over time was measured by HPLC. Briefly, an aliquot of the formulation (about 100 mg) was injected into 3 mL phosphate buffer saline solution at pH 7.4 with 0.1% sodium azide at 37° C. The receiving fluid was replaced at predefined time points with fresh buffer solution, and the removed buffer solution diluted 2-fold with phosphate buffer at pH 7.4 was analyzed for drug concentration by HPLC. The amount released at each time point was calculated.
The in vitro release of leuprolide was tested from several kits of Eligard® 45 mg. These kits contain 1 syringe with leuprolide acetate (LAAc) and one syringe of polymer solution (PLGA8515 in NMP). PLGA8515 used here was prepared with hexanediol as an initiator and has a molar ratio of DL-lactide to Glycolide=85:15. The PLGA8515 polymer has one hydroxyl end group at both ends of the polymer chain. The two syringes are connected and the contents are mixed immediately prior to injection.
Formulations were made with leuprolide mesylate (LAMS(1.6)) in order to achieve the delivery of leuprolide for a period of 3 months. The leuprolide mesylate was prepared from leuprolide formate by salt exchange lyophilization process and contains a small amount of formic acid. […] The removed release media was analyzed by HPLC for leuprolide content.
The in vitro release of leuprolide was tested from these two formulations. The in vitro release test was performed in PBS at pH 7.4 at 37° C. and the release of leuprolide was measured by HPLC over time. […]
Formulations designed for a release duration of one month were made with a 50:50PLGA polymer (MW 50k, PDI 4.0) in NMP using LAMS with a methane sulfonic acid to leuprolide ratio of 1.6:1 and 2.0:1. The formulations were stored at 25° C. and the peptide purity and polymer molecular weight were measured over time. […]

[2] = for molecular weight of PLGA compared with blank control: both 4° C. and RT, after 12 months
Procedure: Poly(DL-lactide-co-glycolide) (PLGA) of an 85/15 ratio of lactide to glycolide (DLPLG85/15, IV: 0.28) with a lauryl ester end group was dissolved in N-methyl-2-pyrrolidone (NMP) to give a 50% solution by weight. […] The injectable compositions were filled into 1.2 mL polypropylene syringes with luer-lock tips. Then the pre-filled syringes were sealed using luer-lock caps. The capped syringes were packaged in a container and sealed in a plastic bag under vacuum and then stored at 4° C. and room temperature (˜22° C.) for up to 18 months. The injectable composition was sampled at 24 h, 1, 2, 3, 6, 12, and 18-month time points. Purity of leuprolide in the sample was determined by HPLC. Molecular weight of the polymer was determined by gel permeation chromatography (GPC) using polystyrene standards with known molecular weights.

Molecule	release of leuprolide completed [1] [days]	in vitro release lasts longer versus leuprolide mesylate ([1]; Example 5, same PLA/NMP solution)	molecular weight of PLGA decreased, comparing to blank control ([2]; 4° C., after 6 months)	molecular weight of PLGA compared with blank control [2]	leuprolide released ([1]; Example 6, FIG. 4, polymer syringe from the Eligard 45 mg kit, at 112 days)
CCNC(=O)[C@@H]1CCCN1C(=O)[C@H](CCCNC(=N)N)NC(=O)[C@H](CC(C)C)NC(=O)[C@@H](CC(C)C)NC(=O)[C@H](Cc1ccc(O)cc1)NC(=O)[C@H](CO)NC(=O)[C@H](Cc1c[nH]c2ccccc12)NC(=O)[C@H](Cc1c[nH]cn1)NC(=O)[C@@H]1CCC(=O)N1 [leuprolide acetate, reference compound]	~240	more than 60 days	more than 10%		
CCNC(=O)[C@@H]1CCCN1C(=O)[C@H](CCCNC(=N)N)NC(=O)[C@H](CC(C)C)NC(=O)[C@@H](CC(C)C)NC(=O)[C@H](Cc1ccc(O)cc1)NC(=O)[C@H](CO)NC(=O)[C@H](Cc1c[nH]c2ccccc12)NC(=O)[C@H](Cc1c[nH]cn1)NC(=O)[C@@H]1CCC(=O)N1 [leuprolide hydrochloride]				the same as that of the blank control	
leuprolide mesylate	~180			the same as that of the blank control	> 99
